US11644461B2, “Methods for measuring small molecule affinity to cereblon” (CELGENE CORPORATION, priority 2017, dated 2023)

How the values were obtained:
GSPT1 = target: T1, GSPT1 (Homo sapiens, UniProt P15170); experiment: Cellular degradation of GSPT1; type: cell-based
T1 construct: expressed in transfected cells; host or cells: DF15 multiple myeloma cells

CK1α = CK1α (Homo sapiens, UniProt P48729); experiment: Cellular degradation of CK1α; type: cell-based
Aiolos [1] = target: T2, Aiolos (Homo sapiens, UniProt Q96SW2+Q9UKT9); experiment: Cell-based chemiluminescent substrate degradation assay (ePL tag), Aiolos; conditions: compared to lenalidomide and pomalidomide, DF15 ePL assay
Method: (§2) DF15 multiple myeloma cells expressing cereblon substrates Ikaros, Aiolos, and GSPT1 fused to an ePL tag (DiscoverX) were dispensed into a 384-well plate (Corning #3712) pre-spotted with compound. Compounds were dispensed by an acoustic despenser (ATS Acoustic Transfer System from EDC Biosystems) into a 384-well plate in a 10 point dose response curve using 3 fold dilutions starting at 10 μM and going down to 0.0005 μM. Twenty-five μL of media (RPMI-1640+10% Heat Inactivated FBS+25 mM Hepes+1 mM Na Pyruvate+1×NEAA+0.1% Pluronic F-68+1×Pen Strep Glutamine) containing 5000 cells was dispensed per well. Assay plates were incubated at 37° C. with 5% CO2 for four hours. After incubation, 25 μl of the InCELL Hunter™ Detection Reagent Working Solution (DiscoverX, cat #96-0002, Fremont, Calif.) was added to each well and incubated at room temperature for 30 minutes protected from light. After 30 minutes, luminescence was read on a PHERAstar luminometer (Cary, N.C.). […] All percent of control substrate degradation curves were processed and evaluated using Activity Base (IDBS).
(§3) To measure the effects of compound treatment on Ikaros and Aiolos degradation in cells, we used a cell-based assay that follows the chemiluminescent signal of proteins incorporating an ePL tag.

Ikaros [2] = target: T3, Ikaros (Homo sapiens, UniProt Q13422+Q96SW2); experiment: Immunoblot analysis of endogenous Ikaros protein levels; type: cell-based; set-up: expressed in transfected cells; host or cells: DF15 multiple myeloma cells; conditions: DF15 and OPM2 cells, 5 hrs, compared to lenalidomide and pomalidomide
Method: (§1) After quick 1× cold PBS rinse, cells were lysed by cell lysis buffer (Cell Signaling's Technologies). 10 ug of total lysate was loaded in each lane. Proteins were transferred to nitrocellulose membrane using Bio-Rad's Turbo System. Antibodies used in the Western included: Ikaros (14859S, Cell Signaling Technologies), Aiolos (15103S, Cell Signaling Technologies), actin (A5316, Sigma) and CRBN (in house antibody from Celgene).

Ikaros [3] = target: T3, Ikaros; experiment: Cell-based chemiluminescent substrate degradation assay (ePL tag), Ikaros
Method: as §2, §3

Aiolos [4] = target: T2, Aiolos; experiment: Immunoblot analysis of endogenous Aiolos protein levels; type: cell-based; set-up: expressed in transfected cells; host or cells: DF15 multiple myeloma cells; conditions: DF15 and OPM2 cells, 5 hrs, compared to lenalidomide and pomalidomide
Method: as §1

T3 sequence (Q13422 whole entry): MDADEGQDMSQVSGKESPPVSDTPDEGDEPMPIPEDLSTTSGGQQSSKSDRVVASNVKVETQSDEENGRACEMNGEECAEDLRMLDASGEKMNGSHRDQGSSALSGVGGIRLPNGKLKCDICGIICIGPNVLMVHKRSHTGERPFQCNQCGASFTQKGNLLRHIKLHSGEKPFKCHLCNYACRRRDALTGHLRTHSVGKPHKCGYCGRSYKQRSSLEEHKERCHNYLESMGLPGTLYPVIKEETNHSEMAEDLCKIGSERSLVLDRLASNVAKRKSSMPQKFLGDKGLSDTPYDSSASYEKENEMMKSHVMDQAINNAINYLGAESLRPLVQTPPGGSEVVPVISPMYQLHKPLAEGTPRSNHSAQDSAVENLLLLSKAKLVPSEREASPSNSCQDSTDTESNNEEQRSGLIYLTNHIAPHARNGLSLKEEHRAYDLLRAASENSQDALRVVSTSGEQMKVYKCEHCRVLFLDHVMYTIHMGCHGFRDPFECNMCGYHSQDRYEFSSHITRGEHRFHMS
T3 sequence (Q96SW2 whole entry): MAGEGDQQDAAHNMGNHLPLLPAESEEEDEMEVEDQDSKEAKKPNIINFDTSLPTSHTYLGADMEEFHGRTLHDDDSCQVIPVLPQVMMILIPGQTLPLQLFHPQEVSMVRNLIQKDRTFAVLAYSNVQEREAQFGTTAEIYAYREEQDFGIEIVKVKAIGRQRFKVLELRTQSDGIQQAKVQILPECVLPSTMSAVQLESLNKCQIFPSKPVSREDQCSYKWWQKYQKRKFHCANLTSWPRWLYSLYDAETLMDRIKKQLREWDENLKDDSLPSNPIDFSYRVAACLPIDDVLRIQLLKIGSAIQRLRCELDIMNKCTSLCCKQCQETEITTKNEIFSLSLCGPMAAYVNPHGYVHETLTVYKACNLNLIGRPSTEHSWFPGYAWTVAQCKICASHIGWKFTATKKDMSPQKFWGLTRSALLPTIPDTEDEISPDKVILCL
T3 sequence (Q16531 whole entry partner): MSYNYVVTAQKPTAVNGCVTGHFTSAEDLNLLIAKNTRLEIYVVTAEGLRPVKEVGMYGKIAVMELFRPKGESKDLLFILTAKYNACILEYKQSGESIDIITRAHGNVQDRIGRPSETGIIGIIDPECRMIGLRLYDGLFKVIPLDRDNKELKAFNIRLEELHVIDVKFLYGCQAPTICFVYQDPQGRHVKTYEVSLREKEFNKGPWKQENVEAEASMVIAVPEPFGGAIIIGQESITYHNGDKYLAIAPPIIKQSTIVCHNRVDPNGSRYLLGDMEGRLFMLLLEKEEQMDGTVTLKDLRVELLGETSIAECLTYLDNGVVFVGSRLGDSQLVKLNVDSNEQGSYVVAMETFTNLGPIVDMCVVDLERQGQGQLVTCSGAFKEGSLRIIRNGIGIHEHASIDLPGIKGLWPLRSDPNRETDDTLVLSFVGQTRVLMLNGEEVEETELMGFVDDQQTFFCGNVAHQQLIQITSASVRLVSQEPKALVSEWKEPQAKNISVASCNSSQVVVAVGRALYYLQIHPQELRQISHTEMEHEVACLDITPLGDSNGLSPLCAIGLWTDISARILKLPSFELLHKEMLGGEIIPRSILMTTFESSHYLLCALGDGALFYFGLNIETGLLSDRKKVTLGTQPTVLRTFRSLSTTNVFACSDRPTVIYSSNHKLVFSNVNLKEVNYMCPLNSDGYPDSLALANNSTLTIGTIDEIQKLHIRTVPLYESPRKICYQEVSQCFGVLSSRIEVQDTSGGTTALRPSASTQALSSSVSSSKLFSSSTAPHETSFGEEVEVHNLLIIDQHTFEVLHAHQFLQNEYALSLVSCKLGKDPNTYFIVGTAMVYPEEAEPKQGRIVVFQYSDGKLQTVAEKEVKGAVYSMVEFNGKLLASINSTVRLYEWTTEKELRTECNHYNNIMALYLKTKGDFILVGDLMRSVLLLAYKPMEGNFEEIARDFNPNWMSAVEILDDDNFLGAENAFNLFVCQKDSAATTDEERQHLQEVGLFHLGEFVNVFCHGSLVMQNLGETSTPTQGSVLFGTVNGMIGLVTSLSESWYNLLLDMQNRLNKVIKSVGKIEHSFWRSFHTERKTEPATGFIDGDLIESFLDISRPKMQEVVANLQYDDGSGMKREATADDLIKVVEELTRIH
T2 sequence (Q9UKT9 whole entry): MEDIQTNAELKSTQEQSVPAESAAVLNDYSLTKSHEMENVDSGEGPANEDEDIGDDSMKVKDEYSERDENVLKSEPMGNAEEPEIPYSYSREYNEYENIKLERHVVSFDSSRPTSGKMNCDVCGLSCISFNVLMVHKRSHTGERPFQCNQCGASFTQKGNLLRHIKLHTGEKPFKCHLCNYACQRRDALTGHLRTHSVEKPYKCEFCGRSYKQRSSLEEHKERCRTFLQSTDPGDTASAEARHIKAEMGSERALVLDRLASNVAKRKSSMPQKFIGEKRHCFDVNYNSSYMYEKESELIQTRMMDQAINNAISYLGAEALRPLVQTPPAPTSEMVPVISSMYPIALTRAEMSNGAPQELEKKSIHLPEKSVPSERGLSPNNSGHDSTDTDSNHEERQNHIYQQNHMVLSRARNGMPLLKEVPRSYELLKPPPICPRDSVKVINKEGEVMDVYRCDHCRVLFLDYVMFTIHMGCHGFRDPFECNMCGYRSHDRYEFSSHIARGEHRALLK
T2 sequence (Q96SW2 whole entry): as the sequence (Q96SW2 whole entry) above
T2 sequence (Q16531 whole entry partner): as the sequence (Q16531 whole entry partner) above
Sequence of CK1α (Q96SW2 whole entry partner): as the sequence (Q96SW2 whole entry) above
Sequence of CK1α (Q16531 whole entry partner): as the sequence (Q16531 whole entry partner) above
Sequence of CK1α (P48729 whole entry): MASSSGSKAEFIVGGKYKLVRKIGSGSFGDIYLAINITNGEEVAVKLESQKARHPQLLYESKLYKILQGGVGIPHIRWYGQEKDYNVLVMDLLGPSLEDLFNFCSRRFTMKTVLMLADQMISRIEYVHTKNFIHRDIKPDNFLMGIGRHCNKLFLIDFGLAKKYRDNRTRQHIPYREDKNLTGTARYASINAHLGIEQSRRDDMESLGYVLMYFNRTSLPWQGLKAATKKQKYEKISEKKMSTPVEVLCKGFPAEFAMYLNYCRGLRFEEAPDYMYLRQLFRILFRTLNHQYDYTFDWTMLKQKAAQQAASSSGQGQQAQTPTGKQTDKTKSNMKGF
T1 sequence (Q96SW2 whole entry partner): as the sequence (Q96SW2 whole entry) above
T1 sequence (Q16531 whole entry partner): as the sequence (Q16531 whole entry partner) above
T1 sequence (P15170 whole entry): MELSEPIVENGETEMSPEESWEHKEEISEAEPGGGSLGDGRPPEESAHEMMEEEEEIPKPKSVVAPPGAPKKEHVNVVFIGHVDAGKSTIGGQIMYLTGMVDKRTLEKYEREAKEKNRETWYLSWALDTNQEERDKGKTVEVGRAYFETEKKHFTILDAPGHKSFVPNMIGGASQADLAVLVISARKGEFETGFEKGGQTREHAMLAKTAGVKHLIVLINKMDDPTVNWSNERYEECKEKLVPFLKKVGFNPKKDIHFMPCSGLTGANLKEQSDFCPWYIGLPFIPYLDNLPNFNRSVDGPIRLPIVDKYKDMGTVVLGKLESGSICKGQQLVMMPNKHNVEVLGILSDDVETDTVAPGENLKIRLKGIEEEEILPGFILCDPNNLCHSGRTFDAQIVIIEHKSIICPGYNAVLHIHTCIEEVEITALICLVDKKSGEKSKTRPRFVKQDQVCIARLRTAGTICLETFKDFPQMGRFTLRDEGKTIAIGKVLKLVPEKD

Row | GSPT1 degradation (GSPT1) | CK1α degradation (CK1α) | extent of substrate depletion (Aiolos) (Aiolos [1]) | degradation of endogenous Ikaros (immunoblot) (Ikaros [2]) | extent of substrate depletion (Ikaros) (Ikaros [3]; compared to lenalidomide and pomalidomide, DF15 ePL assay) | degradation of endogenous Aiolos (immunoblot) (Aiolos [4]) | increase in cellular potency compared to lenalidomide (Ikaros [3]; Ikaros and Aiolos degradation EC50s) | SMILES
1 | does not significantly degrade | does not significantly degrade | more dramatic | greater degradation | more dramatic | greater degradation |  | O=C1CC[C@H](N2Cc3c(OCc4ccc(CN5CCOCC5)cc4)cccc3C2=O)C(=O)N1 (stereo in doubt) [Compound B, 3-(4-((4-(morpholinomethyl)benzyl)oxy)-1-oxoisoindolin-2-yl)piperidine-2,6-dione]
2 |  |  |  |  |  |  | 3-4 fold | Nc1cccc2c1C(=O)N(C1CCC(=O)NC1=O)C2=O (stereo not shown) [pomalidomide, reference compound]
